Test results reported in patent US20250387366A1, “TOPICAL OCULAR DELIVERY OF CROMAKALIM” (QLARIS BIO, INC., priority 2022, published 2025).
In brackets after ≈: the same amount, converted by molar mass. Read-outs that look alike come from different tables or passages of the source. Blank lines part the entries; values can stand above or below the compound they belong to.

Assays:
[1] = system: patients with primary open-angle glaucoma; settings: Phase 2; cited from earlier work
[2] = system: KATP channels; settings: in the presence of ATP (Brayden et al. 1991); cited from earlier work
[3] = Toxicokinetics of levcromakalim in plasma, BID T.O. bilateral formulation 3d for 28 days in rabbits (Example 12, Table 11); format: in vivo, rabbit; settings: for AUC(0-t) / Cmax / Tmax / half-life: DB, rabbit, plasma, topical or ocular; for tlast: in h (unit assumed)
Experimental: Plasma concentrations of levcromakalim were evaluated in DB rabbits after twice a day (BID) oculus uterque (OU, both eyes) topical ophthalmic (T.O.) administration of formulation 3d for 28 days at dose levels of 0, 0.012, 0.03, and 0.06 mg/eye/dose.
Plasma concentrations of levcromakalim were evaluated in DB rabbits after BID OU T.O. administration of three concentrations of formulation 3d at dose levels of 0, 0.012, 0.03, and 0.06 mg/eye/dose (0, 0.024, 0.06, and 0.12 mg/eye/day respectively or 0.030% [1.0 mM], 0.075% [2.5 mM], or 0.15% [5 mM] respectively) for 28 days. Plasma was collected from 3 animals/dose group at pre-dose, 0.5, 1, 2, 3, 4, 6, and 12 hours post-first dose on Days 1 and 28.

[4] = reported by SmithKline Beecham 1993 (Hamilton et al.); cited from earlier work
[5] = Solubility limit of levcromakalim in water (literature); format: physicochemical; settings: converted from 0.48 mg/ml
Text: Therefore, the Chiang Lin tested material undoubtedly had insoluble material which would have a deleterious effect on the eye and nullify the results. The Hamilton article also stated that cromakalim is soluble in ethanol, DMSO and PEG, none of which would be acceptable as the topical ocular carrier for human administration.

[6] = female, 0.012 mg, females, 0.012 mg/eye/dose BID OU T.O. formulation 3d, Day 1, rabbit plasma
[7] = female, 0.012 mg, females, 0.012 mg/eye/dose BID OU T.O. formulation 3d, Day 28, rabbit plasma
[8] = female, 0.03 mg, females, 0.03 mg/eye/dose BID OU T.O. formulation 3d, Day 1, rabbit plasma
[9] = female, 0.03 mg, females, 0.03 mg/eye/dose BID OU T.O. formulation 3d, Day 28, rabbit plasma
[10] = female, 0.06 mg, females, 0.06 mg/eye/dose BID OU T.O. formulation 3d, Day 1, rabbit plasma
[11] = female, 0.06 mg, females, 0.06 mg/eye/dose BID OU T.O. formulation 3d, Day 28, rabbit plasma
[12] = females, 0.012 mg/eye/dose BID OU T.O. formulation 3d, Day 1, rabbit plasma
[13] = females, 0.012 mg/eye/dose BID OU T.O. formulation 3d, Day 28, rabbit plasma
[14] = females, 0.03 mg/eye/dose BID OU T.O. formulation 3d, Day 1, rabbit plasma
[15] = females, 0.03 mg/eye/dose BID OU T.O. formulation 3d, Day 28, rabbit plasma
[16] = females, 0.06 mg/eye/dose BID OU T.O. formulation 3d, Day 1, rabbit plasma
[17] = females, 0.06 mg/eye/dose BID OU T.O. formulation 3d, Day 28, rabbit plasma
[18] = male, 0.012 mg, males, 0.012 mg/eye/dose BID OU T.O. formulation 3d, Day 1, rabbit plasma
[19] = male, 0.012 mg, males, 0.012 mg/eye/dose BID OU T.O. formulation 3d, Day 28, rabbit plasma
[20] = male, 0.03 mg, males, 0.03 mg/eye/dose BID OU T.O. formulation 3d, Day 1, rabbit plasma
[21] = male, 0.03 mg, males, 0.03 mg/eye/dose BID OU T.O. formulation 3d, Day 28, rabbit plasma
[22] = male, 0.06 mg, males, 0.06 mg/eye/dose BID OU T.O. formulation 3d, Day 1, rabbit plasma
[23] = male, 0.06 mg, males, 0.06 mg/eye/dose BID OU T.O. formulation 3d, Day 28, rabbit plasma
[24] = males, 0.012 mg/eye/dose BID OU T.O. formulation 3d, Day 1, rabbit plasma
[25] = males, 0.012 mg/eye/dose BID OU T.O. formulation 3d, Day 28, rabbit plasma
[26] = males, 0.03 mg/eye/dose BID OU T.O. formulation 3d, Day 1, rabbit plasma
[27] = males, 0.03 mg/eye/dose BID OU T.O. formulation 3d, Day 28, rabbit plasma
[28] = males, 0.06 mg/eye/dose BID OU T.O. formulation 3d, Day 1, rabbit plasma
[29] = males, 0.06 mg/eye/dose BID OU T.O. formulation 3d, Day 28, rabbit plasma

Structure (SMILES): CC1(C)Oc2ccc(C#N)cc2[C@@H](N2CCCC2=O)[C@@H]1OP(=O)(O)O [QLS-101]
hyperemia (eye redness) [1]: no evidence of hyperemia
safety and tolerability profile [1]: favorable safety and tolerability profile

Structure (SMILES): CC1(C)Oc2ccc(C#N)cc2C(N2CCCC2=O)C1O (centres unmarked) [Cromakalim]
increase of open-state probability (Popen) of single KATP channels [2]: more than 9 fold

solubility limit in water [5]: 0.048 % w/w
Structure (SMILES): CC1(C)Oc2ccc(C#N)cc2[C@@H](N2CCCC2=O)[C@@H]1O [levcromakalim]
AUC(0-t) [3, 6]: 0.57 ng·h/mL
Cmax [3, 6]: 0.64 ng/mL
Tmax [3, 6]: 1.67 h
half-life [3, 6]: 1.84 h
AUC(0-t) [3, 7]: 0.051 ng·h/mL
Cmax [3, 7]: 0.56 ng/mL
Tmax [3, 7]: 0.33 h
AUC(0-t) [3, 8]: 3.99 ng·h/mL
Cmax [3, 8]: 1.75 ng/mL
Tmax [3, 8]: 0.67 h
half-life [3, 8]: 1.7 h
AUC(0-t) [3, 9]: 3.58 ng·h/mL
Cmax [3, 9]: 1.76 ng/mL
Tmax [3, 9]: 0.67 h
half-life [3, 9]: 2.19 h
AUC(0-t) [3, 10]: 8.89 ng·h/mL
Cmax [3, 10]: 2.85 ng/mL
Tmax [3, 10]: 1 h
half-life [3, 10]: 1.77 h
Cmax [3, 11]: 2.06 ng/mL
Tmax [3, 11]: 1.2 h
half-life [3, 11]: 1.97 h
AUCtlast/Dose [3, 12]: 23.74 ng·h/mL/mg
Cmax/Dose [3, 12]: 26.67 ng/mL/mg
tlast [3, 12]: 2.00
AUCtlast/Dose [3, 13]: 21.11 ng·h/mL/mg
Cmax/Dose [3, 13]: 23.21 ng/mL/mg
tlast [3, 13]: 2.25
AUCtlast/Dose [3, 14]: 66.44 ng·h/mL/mg
Cmax/Dose [3, 14]: 29.22 ng/mL/mg
tlast [3, 14]: 3.67
AUCtlast/Dose [3, 15]: 59.64 ng·h/mL/mg
Cmax/Dose [3, 15]: 29.41 ng/mL/mg
tlast [3, 15]: 3.33
AUCtlast/Dose [3, 16]: 74.06 ng·h/mL/mg
Cmax/Dose [3, 16]: 23.73 ng/mL/mg
tlast [3, 16]: 4.80
AUCtlast [3, 17]: 6.05 ng·h/mL
AUCtlast/Dose [3, 17]: 50.39 ng·h/mL/mg
Cmax/Dose [3, 17]: 17.13 ng/mL/mg
tlast [3, 17]: 4.80
AUC(0-t) [3, 18]: 0.94 ng·h/mL
Cmax [3, 18]: 0.77 ng/mL
Tmax [3, 18]: 1.17 h
AUC(0-t) [3, 19]: 0.14 ng·h/mL
Cmax [3, 19]: 0.37 ng/mL
Tmax [3, 19]: 0.33 h
AUC(0-t) [3, 20]: 3.96 ng·h/mL
Cmax [3, 20]: 2.26 ng/mL
Tmax [3, 20]: 0.67 h
half-life [3, 20]: 1.28 h
AUC(0-t) [3, 21]: 2.53 ng·h/mL
Cmax [3, 21]: 1.68 ng/mL
Tmax [3, 21]: 0.5 h
half-life [3, 21]: 2.88 h
AUC(0-t) [3, 22]: 5.64 ng·h/mL
Cmax [3, 22]: 2.61 ng/mL
Tmax [3, 22]: 0.7 h
half-life [3, 22]: 1.72 h
Cmax [3, 23]: 2.58 ng/mL
Tmax [3, 23]: 0.6 h
half-life [3, 23]: 2.29 h
AUCtlast/Dose [3, 24]: 39.23 ng·h/mL/mg
Cmax/Dose [3, 24]: 32.12 ng/mL/mg
tlast [3, 24]: 1.50
AUCtlast/Dose [3, 25]: 5.78 ng·h/mL/mg
Cmax/Dose [3, 25]: 15.40 ng/mL/mg
tlast [3, 25]: 0.500
AUCtlast/Dose [3, 26]: 66.06 ng·h/mL/mg
Cmax/Dose [3, 26]: 28.88 ng/mL/mg
tlast [3, 26]: 3.00
AUCtlast/Dose [3, 27]: 42.11 ng·h/mL/mg
Cmax/Dose [3, 27]: 28.05 ng/mL/mg
tlast [3, 27]: 2.33
AUCtlast/Dose [3, 28]: 47.04 ng·h/mL/mg
Cmax/Dose [3, 28]: 21.78 ng/mL/mg
tlast [3, 28]: 3.60
AUCtlast [3, 29]: 6.11 ng·h/mL
AUCtlast/Dose [3, 29]: 50.96 ng·h/mL/mg
Cmax/Dose [3, 29]: 21.48 ng/mL/mg
tlast [3, 29]: 4.20
solubility limit in water [4]: 480 µg/mL (≈ 1680 µM)
